The source of these data is BindingDB's records for doi:10.1021/jm0009181 (National Center For Genetic Engineering and Biotechnology …, 2000).

The assay deals with Bifunctional dihydrofolate reductase-thymidylate synthase (Plasmodium falciparum, UniProt A7UD81). The assay can be described thus: Evaluated for inhibition constant (Ki wt) against Wild-type dihydrofolate reductase of Plasmodium falciparum.
Bifunctional dihydrofolate reductase-thymidylate synthase, sequence (A7UD81 whole entry): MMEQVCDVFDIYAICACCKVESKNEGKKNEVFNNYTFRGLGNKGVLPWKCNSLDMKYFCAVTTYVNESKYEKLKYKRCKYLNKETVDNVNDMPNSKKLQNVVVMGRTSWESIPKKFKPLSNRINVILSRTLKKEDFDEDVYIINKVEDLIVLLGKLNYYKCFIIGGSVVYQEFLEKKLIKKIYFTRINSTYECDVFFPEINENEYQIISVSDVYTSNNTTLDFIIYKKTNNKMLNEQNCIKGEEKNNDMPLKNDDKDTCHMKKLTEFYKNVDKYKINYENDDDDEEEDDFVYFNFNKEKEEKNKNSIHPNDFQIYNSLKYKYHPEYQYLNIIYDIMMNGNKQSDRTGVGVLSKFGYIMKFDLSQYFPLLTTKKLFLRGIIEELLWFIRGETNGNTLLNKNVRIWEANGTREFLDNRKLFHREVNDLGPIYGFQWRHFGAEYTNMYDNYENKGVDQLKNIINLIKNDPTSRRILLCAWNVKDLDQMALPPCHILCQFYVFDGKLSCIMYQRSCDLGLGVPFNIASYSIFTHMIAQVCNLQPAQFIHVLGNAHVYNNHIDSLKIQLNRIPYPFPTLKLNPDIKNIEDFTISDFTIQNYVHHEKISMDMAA
The compound `CCC1N=C(N)N=C(N)N1c1ccc(Cl)cc1` (stereo unspecified) [1-(4-Chloro-phenyl)-6-ethyl-1,6-dihydro-[1,3,5]triazine-2,4-diamine] displayed a Ki of 3.6 nM. The compound `NC1=NC(c2ccccc2)N(c2ccc(Br)cc2)C(N)=N1` (stereo unspecified) [1-(4-Bromo-phenyl)-6-phenyl-1,6-dihydro-[1,3,5]triazine-2,4-diamine] registered an inhibition constant (Ki) of 2.9 nM. With `CC1(C)N=C(N)N=C(N)N1c1ccc(Br)cc1` [1-(4-Bromo-phenyl)-6,6-dimethyl-1,6-dihydro-[1,3,5]triazine-2,4-diamine] the figure was 1.1 nM; with `CC1N=C(N)N=C(N)N1c1ccc(Br)cc1` (stereo unspecified) [1-(4-Bromo-phenyl)-6-methyl-1,6-dihydro-[1,3,5]triazine-2,4-diamine], 5.7 nM; with `CC(C)C1N=C(N)N=C(N)N1c1ccc(Cl)cc1` (stereo unspecified) [1-(4-Chloro-phenyl)-6-isopropyl-1,6-dihydro-[1,3,5]triazine-2,4-diamine], 60.5 nM. As to `CCC1N=C(N)N=C(N)N1c1ccc(Br)cc1` (stereo unspecified) [1-(4-Bromo-phenyl)-6-ethyl-1,6-dihydro-[1,3,5]triazine-2,4-diamine], the affinity, expressed as Ki, was 5.7 nM. `NC1=NCN(c2ccc(Cl)cc2)C(N)=N1` [1-(4-Chloro-phenyl)-1,6-dihydro-[1,3,5]triazine-2,4-diamine] yielded a Ki of 24.4 nM. As for `CCCCC1N=C(N)N=C(N)N1c1ccc(Cl)cc1` (stereo unspecified) [6-Butyl-1-(4-chloro-phenyl)-1,6-dihydro-[1,3,5]triazine-2,4-diamine], the figure is 3.7 nM; as for `NC1=NCN(c2ccccc2)C(N)=N1` [1-Phenyl-1,6-dihydro-[1,3,5]triazine-2,4-diamine], 329 nM. Compound `CC1(C)N=C(N)N=C(N)N1c1ccc(F)cc1` [1-(4-Fluoro-phenyl)-6,6-dimethyl-1,6-dihydro-[1,3,5]triazine-2,4-diamine] registered a Ki of 4.6 nM. `Cc1ccc(N2C(N)=NC(N)=NC2C)cc1` (stereo unspecified) [6-Methyl-1-p-tolyl-1,6-dihydro-[1,3,5]triazine-2,4-diamine] yielded a Ki of 23 nM.

`CCCC1N=C(N)N=C(N)N1c1ccc(Cl)cc1` (stereo unspecified) [1-(4-Chloro-phenyl)-6-propyl-1,6-dihydro-[1,3,5]triazine-2,4-diamine]: the Ki was 4.6 nM. As for `NC1=NCN(c2ccc(F)cc2)C(N)=N1` [1-(4-Fluoro-phenyl)-1,6-dihydro-[1,3,5]triazine-2,4-diamine], the figure is 270 nM; as for `CCCC1N=C(N)N=C(N)N1c1ccc(Br)cc1` (stereo unspecified) [1-(4-Bromo-phenyl)-6-propyl-1,6-dihydro-[1,3,5]triazine-2,4-diamine], 2.6 nM; as for `Cc1ccc(N2C(N)=NC(N)=NC2C(C)C)cc1` (stereo unspecified) [6-Isopropyl-1-p-tolyl-1,6-dihydro-[1,3,5]triazine-2,4-diamine], 167 nM.

Turning to `CCC1N=C(N)N=C(N)N1c1ccc(C)cc1` (stereo unspecified) [6-Ethyl-1-p-tolyl-1,6-dihydro-[1,3,5]triazine-2,4-diamine], the affinity corresponds to a Ki of 5.9 nM. As for `Cc1ccc(N2C(N)=NC(N)=NC2c2ccccc2)cc1` (stereo unspecified) [6-Phenyl-1-p-tolyl-1,6-dihydro-[1,3,5]triazine-2,4-diamine], the figure is 7.7 nM.

For the compound `CCCC1N=C(N)N=C(N)N1c1ccc(C)cc1` (stereo unspecified) [6-Propyl-1-p-tolyl-1,6-dihydro-[1,3,5]triazine-2,4-diamine], the affinity corresponds to a Ki of 13.7 nM. `CC1(C)N=C(N)N=C(N)N1c1ccccc1` [6,6-Dimethyl-1-phenyl-1,6-dihydro-[1,3,5]triazine-2,4-diamine]: the Ki came to 20 nM. As for `CC1N=C(N)N=C(N)N1c1ccc(Cl)c(Cl)c1` (stereo unspecified) [1-(3,4-Dichloro-phenyl)-6-methyl-1,6-dihydro-[1,3,5]triazine-2,4-diamine], the figure is 1.4 nM; as for `CC(C)C1N=C(N)N=C(N)N1c1ccc(Br)cc1` (stereo unspecified) [1-(4-Bromo-phenyl)-6-isopropyl-1,6-dihydro-[1,3,5]triazine-2,4-diamine], 30 nM.

Broadly, the Ki is a dissociation constant, usually derived from enzyme kinetics or from competition with a known ligand. High values mean lower affinity, low ones higher affinity.
